This is an account of results in the METLIN SMRT retention time set (Domingo-Almenara et al. 2019).

This series can be described thus: gradient 5% acetonitrile 3 min, to 50% in 2 min, to 85% in 15 min, held 3 min, 100 µL/min. Conditions: column: Zorbax Extend-C18 2.1 x 50 mm; eluents: water / acetonitrile, 0.1% formic acid. In a few lines: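 Data were gathered over 3 months by HPLC coupled to a quadrupole time-of-flight mass spectrometer, operated in positive and negative ionization mode. Mixtures of ~100 pure standards ran on a Zorbax Extend-C18 column (2.1 × 50 mm, 1.8 μm) at 100 μL/min, with water and acetonitrile each containing 0.1% formic acid and dead and dwell volumes of 40 μL and 900 μL. Retention time was read from adduct peaks picked by computer and checked manually.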
`CCS(=O)(=O)N1CCC(C(=O)NCCc2csc(-c3cccs3)n2)CC1` came in with an RP-LC retention time of 738 s.
`CCc1nc(-c2csc(S(=O)(=O)N3CCCC(C(=O)Nc4ccc(F)cc4F)C3)c2)no1` (centres undefined) gave an RP-LC retention time of 1060 s.
The result for `CCN(CC)S(=O)(=O)c1ccc2c(c1)cc(C(=O)NCCCN1CCCCC1C)n2C` (centres undefined) reads 679 s; that for `Cn1nnnc1SCC(=O)Nc1nc2c(s1)C(=O)CCC2`, 607 s; that for `CC1CCN(C(=O)C2=CN(c3ccccc3)c3ccccc3S2(=O)=O)CC1`, 919 s.
As for `CCS(=O)(=O)c1nc2ccc(NS(=O)(=O)c3cc(C)cc(C)c3)cc2s1`, the RP-LC retention time is 936 s.
The result for `COc1cc(C(=O)N2CCN(c3cc(N(C)C)nc(C)n3)CC2)cc(OC)c1OC` reads 599 s.
As for `Cc1ccc(Cl)c(NC(=O)c2[nH]c3cc(C)sc3c2CN(C)C)c1`, the RP-LC retention time amounted to 688 s.
The same measure for `COc1ccc(Cl)cc1S(=O)(=O)NCC1CCN(C(=O)c2ccccc2F)CC1`: 686 s; for `COc1ccc(NC(=O)c2sc(-c3cn(C)c4ncccc34)nc2C)c(C)c1`: 881 s; for `CC(=O)Nc1ccc2nc(NC(=O)c3cccc(C(F)(F)F)c3)sc2c1`: 784 s.
The compound `Cn1c(=O)c2nc(S(=O)(=O)CCC(=O)Nc3ccc(F)cc3Cl)n(C)c2n(C)c1=O` had an RP-LC retention time of 758 s.
The result for `O=C(Nc1ccccc1)N[C@H]1C[C@H](C(=O)O)Nc2cc(Cl)cc(Cl)c21` reads 799 s; that for `CCCn1cc(-c2ccncc2)cc1C(=O)Nc1ccc(OC)c(OC)c1`, 654 s; that for `COc1ccc(C(=O)Nc2nc(C)c3cc4c(cc3n2)OCO4)cc1`, 692 s.
For the compound `COc1cccc(-c2noc(CSc3nccn3-c3ccccc3)n2)c1OC`, the RP-LC retention time stood at 857 s.
The result for `O=C(N1CCc2ccccc2C1)C1(c2ccccc2)CCOCC1` reads 891 s.
As to `Cc1ccc(Cl)c(NC(=O)c2nc(C)oc2C)c1`, the RP-LC retention time was 1140 s.
Consider `O=c1n(Cc2ccccc2)nc2c(S(=O)(=O)N3CCN(c4ccc(F)cc4)CC3)cccn12`, for which the RP-LC retention time stood at 973 s.
For the compound `CCn1ccc2oc(C)c(C(=O)NCc3cccc(Br)c3)c2c1=O`, the RP-LC retention time turned out to be 1060 s.
The same measure for `COC(=O)c1ccc(NC(=O)N(Cc2cc(=O)[nH]c3ccccc23)CC(C)C)cc1`: 830 s.
The same measure for `O=C(Nc1ccc(Cl)cc1)C1CCCN1S(=O)(=O)c1cccc2nsnc12` (centres undefined): 924 s.
Regarding `CCCNC(=O)C1CCCN(c2nc3ncn(CC(=O)NCc4cccs4)c(=O)c3s2)C1` (centres undefined), the RP-LC retention time was 657 s.
Regarding `CCC1CN(C(=O)Nc2cccc(C(=O)OC)c2)c2ccccc2O1` (centres undefined), the RP-LC retention time is 1020 s.
For the compound `CN(C)CCNC(=O)c1ccc2c(c1)N(Cc1ccc(F)cc1)C(=O)CO2`, the RP-LC retention time worked out at 616 s.
The same measure for `CC1CCN(C(=O)c2nnc(-c3ccc(S(=O)(=O)N4CCCCC4)cc3)o2)CC1`: 1060 s.
The same measure for `O=C(CSc1nccn1-c1ccc(C(=O)NCc2cccs2)cc1)Nc1ccccc1`: 671 s.
Turning to `CCOc1nc2ccccc2nc1N1CCCC(C(=O)N2CCSCC2)C1` (centres undefined), the RP-LC retention time was determined as 1150 s.
For the compound `CC(=O)Nc1ccc(CCc2nc3ccc(C(=O)NC(C)Cc4ccco4)cc3[nH]2)cc1` (centres undefined), the RP-LC retention time is 626 s.
The same measure for `COC(=O)c1ccccc1NC(=O)Cn1nc2n(c1=O)CCCCC2`: 756 s.
Regarding `COc1ccc(C2C(=O)N(CCc3ccccc3)CC(=O)N2Cc2cccs2)cc1` (centres undefined), the RP-LC retention time stood at 964 s.
The same measure for `Cc1cccc(C)c1OCC(O)Cn1c(C2CC2)nc2ccccc21` (centres undefined): 710 s.
The same measure for `Cc1ccc(NC(=O)Cn2c(C)nc3c(sc4nc(-c5ccccc5)ccc43)c2=O)c(Cl)c1`: 1140 s; for `COc1cc(-c2noc(C3CC(=O)N(c4ccc(C)c(Cl)c4)C3)n2)cc(OC)c1OC` (centres undefined): 1050 s.
Compound `COc1ncc(C(=O)NCc2ccc(SC)cc2)cn1` returned an RP-LC retention time of 747 s.
The result for `Cc1cccc(-c2nc(CN(c3ccccc3)S(=O)(=O)c3cccs3)c(C)o2)c1` reads 1240 s; that for `O=C([C@@H]1C[C@H](F)CN1S(=O)(=O)c1ccccc1)N1CCOCC1`, 643 s; that for `Cc1nn(-c2ccc(Cl)cc2)c(C)c1S(=O)(=O)N1CCC(C(=O)N2CCCCC2)CC1`, 995 s.
The same measure for `Cn1nc(C(=O)N2CCCCC2)c2c1CCN(C(=O)Nc1ccccc1Br)C2`: 764 s; for `CCCNC(=O)c1cc(=O)[nH]c2ccccc12`: 620 s; for `COc1ccc(OC)c(CNC(=O)c2c(N3CCCC3=O)c3cc(F)ccc3n2C)c1`: 904 s.
Turning to `Cc1occc1C(=O)N[C@@H]1CN(c2ncccn2)C[C@H]1CO`, the RP-LC retention time came out at 597 s.
The same measure for `Cn1ncc2c3ccccc3n(CC(=O)NC3CCN(Cc4ccccc4)CC3)c2c1=O`: 624 s.
The result for `Cc1nc(-c2ccncc2)cc2nn(CC(=O)Nc3ccc(F)c(Cl)c3)c(=O)n12` reads 679 s; that for `COc1cccc(CNC(=O)Nc2ccc(-c3nc(-c4cc(C)ccc4C)co3)cc2)c1`, 1180 s; that for `COc1ccc(-n2c(=O)c3sccc3n(Cc3nc(-c4ccc(OC(C)C)cc4)no3)c2=O)cc1`, 1060 s.
Compound `O=S(=O)(NCc1cccnc1-c1ccc(F)cc1)c1ccc(F)cc1` showed an RP-LC retention time of 737 s.
The same measure for `O=C(Nc1cc(Cl)cc(Cl)c1)N1CC(Cc2nc(-c3cnccn3)no2)C1`: 838 s.
For `CC1CCC(NC(=O)C2CCN(C(=O)c3cc(-c4ccncc4)n[nH]3)CC2)CC1` (centres undefined), the RP-LC retention time was determined as 624 s.
The same measure for `CN1C(=O)c2cccnc2Sc2cc(NC(=O)c3cccc(C(F)(F)F)c3)ccc21`: 910 s.
The same measure for `CCc1nc2c(NC(=O)Nc3ccc4c(c3)CCC4)cccn2n1`: 957 s; for `COc1ccc(N2CCN(S(=O)(=O)c3cc(-c4csc(C)n4)ccc3C)CC2)cc1`: 1130 s; for `COCCc1noc([C@@H]2CC(F)(F)CN2C(=O)c2ccco2)n1`: 716 s.
The result for `O=C(NCc1noc(C2CCCC2)n1)c1ccccc1` reads 796 s; that for `Cc1cc(-c2ccc(C)c(S(=O)(=O)N3CCN(c4ccccn4)CC3)c2)on1`, 719 s.
In turn, `Cc1cccc(N2CCN(C(=O)c3ccc4c(c3)N(C)C(=O)C3CCCCN43)CC2)c1C` (centres undefined) gave an RP-LC retention time of 1170 s.
The result for `c1cc2c(cc1-c1nnc(C3CC3)o1)OCO2` reads 781 s; that for `CCc1ccc(NC(=O)CSc2nccc(N3CCN(c4cc(C)ccc4C)CC3)n2)cc1`, 995 s; that for `CCn1c(=O)c(C)nc2cc(-c3noc(/C=C/c4ccc(OC)c(OC)c4)n3)ccc21`, 1010 s.
In turn, `CCOC(=O)c1nn(-c2ccccc2)c(=O)cc1NCc1ccccn1` gave an RP-LC retention time of 649 s.
The same measure for `COc1ccc(OC)c(S(=O)(=O)N(C)CC2(C)CCOCC2)c1`: 852 s; for `Cc1oc(-c2[nH]ncc2C(=O)N(C)C)cc1S(=O)(=O)Nc1cccc(F)c1`: 668 s.
The same measure for `COCc1cn(C2CN(C(=O)c3ccc(OC)c(F)c3)C2)nn1`: 649 s; for `COC(=O)c1cnc2nc(C)ccc2c1Nc1ccc(C)cc1C`: 699 s.
The same measure for `CN1CCN(CCNC(=O)c2ccc(NC(=O)C3=CSCCO3)cc2)CC1`: 754 s; for `Cc1cnc(C2CC2)n1C1CCN(S(=O)(=O)c2ccc(C#N)cc2)CC1`: 660 s.
With `Cc1ccc(C(=O)N2CCC3(CC2)N(C)C(=O)CS3(=O)=O)s1`, the RP-LC retention time is 614 s.
Consider `COc1ccc(-c2nc3c4ccccc4ncn3n2)cc1`, for which the RP-LC retention time was 924 s.
The result for `CN1C(=O)c2cc(C(=O)NCc3ccccc3F)nn2CC1(C)C(=O)NCc1ccc(F)cc1` (centres undefined) reads 792 s; that for `CCc1cc(C2CCCN2C(=O)NCc2ccccc2)on1` (centres undefined), 766 s.
The same measure for `CCOc1ccccc1-c1noc(Cn2c(=O)n(-c3cccc(C)c3)c(=O)c3sccc32)n1`: 1010 s; for `O=C(COc1ccc(F)cc1)Nc1nc(CN2CCc3ccccc3C2)cs1`: 608 s; for `CC(C)NS(=O)(=O)c1ccc(NC(=O)Cn2cncn2)cc1`: 602 s.
For the compound `CCNC(=O)c1[nH]c2ccc(C)cc2c1N1CCCC1=O`, the RP-LC retention time was determined as 690 s.
For the compound `Cc1ccc(C2CC(=O)c3cnc(Nc4nc(C)c5ccccc5n4)nc3C2)cc1` (centres undefined), the RP-LC retention time turned out to be 772 s.
The same measure for `O=c1c2cc3c(cc2nc(SCc2nc(-c4ccccc4)no2)n1-c1ccc(F)cc1)OCO3`: 1140 s.
`Cc1ccc(C(=O)N(CCCN)[C@@H](c2nc3cc(Cl)ccc3c(=O)n2Cc2ccccc2)C(C)C)cc1` had an RP-LC retention time of 990 s.
Compound `Cc1nn2c(CNC(=O)C(C)Oc3cccc(Cl)c3)c(C)nc2s1` (centres undefined) displayed an RP-LC retention time of 676 s.
With `CN(C(=O)Cn1ccn2nc(-c3ccc(F)cc3)c(CO)c2c1=O)c1ccccc1`, the RP-LC retention time is 924 s.
